IC50 data for one compound are collected here from ChEMBL document CHEMBL4418318, “Dynamin-1-like protein inhibitors” (2018).

The structures appear in SMILES notation. Bounds are passed on as bounds.

For the experiment, the target named is Dynamin-1-like protein (Homo sapiens, UniProt O00429). In words: Inhibition of DRP1 (unknown origin) using GTP as substrate incubated for 20 mins by malachite green reagent based colorimetric assay.
Sequence of Dynamin-1-like protein (O00429 whole entry): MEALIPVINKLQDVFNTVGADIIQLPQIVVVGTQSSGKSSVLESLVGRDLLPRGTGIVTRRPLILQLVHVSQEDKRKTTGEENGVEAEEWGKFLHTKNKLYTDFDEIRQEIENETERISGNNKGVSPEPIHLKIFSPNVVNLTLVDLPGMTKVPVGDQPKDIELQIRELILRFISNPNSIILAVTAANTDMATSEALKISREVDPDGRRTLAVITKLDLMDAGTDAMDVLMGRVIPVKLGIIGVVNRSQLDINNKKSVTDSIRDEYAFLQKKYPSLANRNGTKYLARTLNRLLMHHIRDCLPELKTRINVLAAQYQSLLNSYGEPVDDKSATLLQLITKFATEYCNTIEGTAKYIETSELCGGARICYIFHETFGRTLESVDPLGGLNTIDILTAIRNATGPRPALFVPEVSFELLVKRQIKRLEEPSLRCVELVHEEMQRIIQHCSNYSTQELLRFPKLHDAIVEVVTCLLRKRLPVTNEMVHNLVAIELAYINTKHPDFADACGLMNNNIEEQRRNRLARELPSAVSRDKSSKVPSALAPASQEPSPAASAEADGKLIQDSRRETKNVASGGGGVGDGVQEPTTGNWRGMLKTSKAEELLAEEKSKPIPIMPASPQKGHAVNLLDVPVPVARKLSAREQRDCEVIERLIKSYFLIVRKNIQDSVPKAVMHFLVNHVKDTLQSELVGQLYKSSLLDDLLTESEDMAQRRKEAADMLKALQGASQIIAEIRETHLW

Take `O=C(O)c1ccc(NC(=O)c2cc(Br)cn2Cc2csc(N3CCCCC3)n2)cc1`: the IC50 was greater than 100 µM.

In general, IC50 refers to the concentration that inhibits the measured activity by half. Lower therefore signals greater potency in that assay.
